For orientation: EC50 means the concentration giving half of the maximal effect. Low values mean a more potent agent, high ones a less potent agent.

Results on one compound are retold here after patent EP4592286A1, “MACROCYCLIC NITROGEN-CONTAINING CROWN ETHER COMPOUND AND USE THEREOF AS PROTEIN KINASE INHIBITOR” (Artivila Biopharma, priority 2022, dated 2024).

This experiment deals with T1, wild-type LRRK2 (Homo sapiens, UniProt Q5S007).
T1 construct: pCMV-flag-WT LRRK2 (full-length); expressed in transfected cells; host or cells: HEK293T
Nature of the experiment: detection of phosphorylated S935 in HEK293T overexpressing wild-type LRRK2. The note with it: pS935, HEK293T overexpressing wild-type LRRK2, 1.5 hours. It is filed as cell-based. The procedure: Detection of phosphorylated S935 in HEK293T Overexpressing full-length LRRK2 (G2019S) or wild-type LRRK2
HEK293T cells was inoculated into a 6-well plate and cultured overnight. The next day, they were transiently transfected with plasmid pcDNA5-FRT/TO-FLAG LRRK2 (G2019S, full-length) or pCMV-flag-WT LRRK2 (full-length) by using Superfect transfection reagent and cultured at 37°C and 5% CO2 for 20-24 hours. The next day, cells were collected, resuspended at a density of 0.48×10^6 cells/ml, and inoculated into a 384-well plate at 50 microliters/well. Compound or DMSO solutions (volume ratio of 0.5%) were added by Tecan, and cultured at 37°C and 5% CO2 for 1.5 hours. After 1.5 hours, the supernatant was discarded, 50 microliters of 8% PFA were added in each well to fix the cells, and the cells were incubated at room temperature for 1 hour. The plate was washed with EL406 plate washer for three times, with 115 microliters of PBST per well, and the culture plate was patted to dryness. The cells were blocked with 50 microliters/well of Licor Odyssey blocking solution (0.1% Tween 20) at room temperature for 1.5 hours. The blocking solution was discarded and the culture plate was patted to dryness. 20 microliters of primary antibody (1:1000(pS935), diluted with Licor Odyssey buffer (0.1% Tween20)) was added into each well, and incubated at 4 °C overnight. The next day, the first antibody was discarded and washing was performed with PBST for five times. 20 microliters of secondary antibody (diluted with Licor Odyssey buffer (0.1% Tween20) at 1:500 and stained with DNA at 1:2000) were added into each well, and incubated at room temperature for 1 hour. The second antibody was discarded, and washing was performed for three times with PBST. The fluorescence intensity was measured by LICOR Odyssey imager Scanner, and the data was analyzed.

T1 sequence (Q5S007 whole entry): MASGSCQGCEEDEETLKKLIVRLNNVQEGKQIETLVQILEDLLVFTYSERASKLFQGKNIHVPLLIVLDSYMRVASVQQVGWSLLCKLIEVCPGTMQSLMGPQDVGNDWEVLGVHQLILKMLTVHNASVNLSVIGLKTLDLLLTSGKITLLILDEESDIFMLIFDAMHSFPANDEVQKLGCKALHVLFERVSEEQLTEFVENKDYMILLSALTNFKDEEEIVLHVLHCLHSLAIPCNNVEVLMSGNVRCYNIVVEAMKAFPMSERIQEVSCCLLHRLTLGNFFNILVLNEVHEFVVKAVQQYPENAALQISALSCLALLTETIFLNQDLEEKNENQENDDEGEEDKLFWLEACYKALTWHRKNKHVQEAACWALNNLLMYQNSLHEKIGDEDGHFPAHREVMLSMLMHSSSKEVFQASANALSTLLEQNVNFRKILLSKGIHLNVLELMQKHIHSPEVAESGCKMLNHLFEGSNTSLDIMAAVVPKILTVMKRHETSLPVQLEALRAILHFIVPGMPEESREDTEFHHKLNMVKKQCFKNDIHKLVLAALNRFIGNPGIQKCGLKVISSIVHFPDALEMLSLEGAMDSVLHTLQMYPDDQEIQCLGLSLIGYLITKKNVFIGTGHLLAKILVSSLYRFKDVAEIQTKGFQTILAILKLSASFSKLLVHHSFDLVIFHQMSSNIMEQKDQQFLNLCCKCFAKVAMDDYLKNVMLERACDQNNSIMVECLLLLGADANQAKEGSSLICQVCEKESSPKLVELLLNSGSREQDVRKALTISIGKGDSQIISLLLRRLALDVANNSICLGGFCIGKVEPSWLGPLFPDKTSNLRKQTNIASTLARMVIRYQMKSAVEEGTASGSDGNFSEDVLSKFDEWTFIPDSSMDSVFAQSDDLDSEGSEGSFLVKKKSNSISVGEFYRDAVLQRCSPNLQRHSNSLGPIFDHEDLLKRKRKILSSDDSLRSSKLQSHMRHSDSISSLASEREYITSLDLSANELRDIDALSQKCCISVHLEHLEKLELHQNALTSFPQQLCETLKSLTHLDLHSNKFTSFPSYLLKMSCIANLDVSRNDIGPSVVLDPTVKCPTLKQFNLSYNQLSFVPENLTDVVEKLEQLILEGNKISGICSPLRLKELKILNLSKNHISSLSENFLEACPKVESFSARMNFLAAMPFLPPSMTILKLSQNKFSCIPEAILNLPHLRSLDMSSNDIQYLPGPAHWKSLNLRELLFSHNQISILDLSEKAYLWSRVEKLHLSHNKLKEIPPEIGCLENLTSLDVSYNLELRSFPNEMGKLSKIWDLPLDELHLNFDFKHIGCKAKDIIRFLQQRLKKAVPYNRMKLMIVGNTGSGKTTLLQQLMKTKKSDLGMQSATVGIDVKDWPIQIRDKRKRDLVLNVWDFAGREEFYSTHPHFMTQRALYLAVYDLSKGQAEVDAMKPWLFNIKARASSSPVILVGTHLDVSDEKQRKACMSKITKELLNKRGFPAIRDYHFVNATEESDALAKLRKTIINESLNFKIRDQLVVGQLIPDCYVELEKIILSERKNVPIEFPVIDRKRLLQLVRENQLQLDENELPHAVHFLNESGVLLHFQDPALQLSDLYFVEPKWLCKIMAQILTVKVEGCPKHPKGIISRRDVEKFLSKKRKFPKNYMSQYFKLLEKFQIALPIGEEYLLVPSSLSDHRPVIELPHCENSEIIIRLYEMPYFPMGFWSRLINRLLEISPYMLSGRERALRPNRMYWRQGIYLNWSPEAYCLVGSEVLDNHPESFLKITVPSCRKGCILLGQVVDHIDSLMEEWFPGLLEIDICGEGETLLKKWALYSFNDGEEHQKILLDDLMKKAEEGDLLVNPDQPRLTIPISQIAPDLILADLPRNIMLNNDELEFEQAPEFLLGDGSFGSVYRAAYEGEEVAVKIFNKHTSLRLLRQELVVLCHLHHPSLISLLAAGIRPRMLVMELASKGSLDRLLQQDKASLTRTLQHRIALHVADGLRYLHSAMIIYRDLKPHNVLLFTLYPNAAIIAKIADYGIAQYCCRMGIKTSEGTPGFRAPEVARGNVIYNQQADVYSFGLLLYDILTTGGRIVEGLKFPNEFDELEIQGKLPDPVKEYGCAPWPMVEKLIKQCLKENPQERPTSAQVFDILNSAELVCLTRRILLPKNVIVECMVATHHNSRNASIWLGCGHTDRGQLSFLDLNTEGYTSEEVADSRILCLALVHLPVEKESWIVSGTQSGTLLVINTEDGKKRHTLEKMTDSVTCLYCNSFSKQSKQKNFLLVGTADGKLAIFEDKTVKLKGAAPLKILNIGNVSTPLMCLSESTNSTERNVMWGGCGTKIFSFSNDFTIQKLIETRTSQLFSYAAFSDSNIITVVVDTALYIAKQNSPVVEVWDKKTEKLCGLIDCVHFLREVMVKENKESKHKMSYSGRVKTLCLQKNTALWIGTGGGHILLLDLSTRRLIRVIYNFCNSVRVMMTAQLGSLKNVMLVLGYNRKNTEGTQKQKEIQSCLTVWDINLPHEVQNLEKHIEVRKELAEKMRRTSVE

`CCS(=O)(=O)N1CC(CC#N)(n2cc(-c3nc(Nc4ccc5c(c4)OCCN(C)CCO5)nc4[nH]ccc34)cn2)C1` [Example 28, 2-(1-(ethylsulfonyl)-3-(4-(2-((4-methyl-3,4,5,6-tetrahydro-2H-benzo[b][1,4,7]dioxazolin-9-yl)amino)-7H-pyrrolo[2,3-d]pytimidin-4-yl)-1H-pyrazol-1-yl)azetidin-3-yl) acetonitrile] had an EC50 of less than 500 nM.
